Values joined by “and” are separate entries in the source; they are usually repeats but may differ in a detail not shown here. Equal values may be shown once.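 Assay format: 96-well plates, 48-hour exposure. GI50 = concentration required for 50% inhibition of growth. Definition used: TGI = concentration required for complete inhibition of growth.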
What was measured:
Assay in all cases: NCI anticancer screen, dose series, 48 h
UACC-62 melanoma = system: UACC-62 melanoma
SF-539 CNS = system: SF-539 CNS
OVCAR-4 ovarian = system: OVCAR-4 ovarian
UO-31 renal = system: UO-31 renal
RXF 393 renal = system: RXF 393 renal
PC-3 prostate = system: PC-3 prostate
K-562 leukemia = system: K-562 leukemia
BT-549 breast = system: BT-549 breast
U251 CNS = system: U251 CNS
IGROV1 ovarian = system: IGROV1 ovarian

Structure (SMILES)	GI50 (UACC-62 melanoma)	TGI (UACC-62 melanoma)	GI50 (SF-539 CNS)	TGI (SF-539 CNS)	GI50 (OVCAR-4 ovarian)	TGI (OVCAR-4 ovarian)	GI50 (UO-31 renal)	TGI (UO-31 renal)	GI50 (RXF 393 renal)	TGI (RXF 393 renal)	GI50 (PC-3 prostate)	TGI (PC-3 prostate)	GI50 (K-562 leukemia)	TGI (K-562 leukemia)	GI50 (BT-549 breast)	TGI (BT-549 breast)	GI50 (U251 CNS)	TGI (U251 CNS)	GI50 (IGROV1 ovarian)	TGI (IGROV1 ovarian)
O=C(CN(C1CCCCC1)C1CCCCC1)Nc1ccc(S(=O)(=O)c2ccc(NC(=O)CN(C3CCCCC3)C3CCCCC3)cc2)cc1	0.595 µM	2.05 µM	0.37 µM	1.46 µM	0.942 µM	2.58 µM	1.24 µM	2.56 µM	0.817 µM	2.31 µM	0.985 µM	2.35 µM	0.277 µM	1.38 µM	0.506 µM	1.91 µM	0.234 µM	0.742 µM	0.421 µM	1.6 µM
CCCS(=O)(=O)Nc1ccc(Nc2c3ccccc3nc3ccccc23)c(OC)c1		13.1 µM		4.18 µM		32.4 µM		6.47 µM		14.9 µM		17.6 µM		> 42.7 µM		9.99 µM		4.41 µM		18.2 µM
Cc1c[n+](Cc2ccc3ccccc3c2)cn1Cc1ccc2ccccc2c1	1.41 µM	3.12 µM	1.57 µM	3.05 µM	0.583 µM	2.35 µM	5.47 µM	20.4 µM	1.62 µM	3.47 µM	1.27 µM	2.84 µM	1.38 µM	4.59 µM	1.56 µM	3.12 µM	1.61 µM	3.07 µM	1.46 µM	3.75 µM
COc1ccccc1/C=C/c1cnccn1		> 10 µM		> 10 µM		> 10 µM		> 10 µM		> 10 µM		> 10 µM		> 10 µM		> 10 µM		> 10 µM		> 10 µM
Nc1nc(Nc2ccccc2)c2ncn(Cc3cc4c(cc3Br)OCO4)c2n1	0.0537 µM	28.4 µM	0.0394 µM	0.51 µM	0.326 µM	55.1 µM	0.129 µM	> 100 µM	0.0602 µM	8.65 µM	0.0801 µM	46.9 µM	0.0415 µM	> 39.9 µM	0.0511 µM	2.33 µM	0.12 µM	1.45 µM	0.105 µM	60.4 µM
Nc1nc(Br)nc2c1ncn2C1CC(O)C(CO)O1 (stereo not drawn)	2.4 µM	> 100 µM	27.4 µM	> 100 µM	> 100 µM	> 100 µM	1.3 µM	> 100 µM	32.8 µM	> 100 µM	> 20.1 µM	> 100 µM	> 24 µM	> 100 µM	3.52 µM	> 100 µM	11.4 µM	> 100 µM		> 69.4 µM
CCN1C(=O)N(CC)C2C1NC(=S)N2/N=C/C=C/c1cccs1 (stereo not drawn)	0.45 µM	> 100 µM	0.226 µM	0.666 µM	1.32 µM	> 100 µM	0.923 µM	> 100 µM	0.182 µM	> 100 µM	0.344 µM	> 100 µM	0.263 µM	> 100 µM	1.2 µM	9.09 µM	0.342 µM	> 100 µM	0.569 µM	> 100 µM
C#CC(=O)Nc1cccc(Nc2nc3c(c(NCc4ccccc4)n2)CCCC3)c1	0.0851 µM	0.279 µM	< 0.01 µM	< 0.01 µM	0.291 µM	1.02 µM	< 0.01 µM	< 0.01 µM	0.0389 µM	0.239 µM	< 0.01 µM	0.0344 µM	1.39 µM	5.96 µM	0.0266 µM	0.0776 µM	0.0208 µM	0.0776 µM	< 0.01 µM	0.0598 µM
CC(=O)c1c(CBr)n([O-])c2ccccc2[n+]1=O	14.9 µM	28.6 µM	11.2 µM	24 µM	3.78 µM	13.2 µM	5.51 µM	19 µM	15.3 µM	32.6 µM	15.5 µM	33.1 µM	3.45 µM	12.5 µM	9.61 µM	21.5 µM	16.2 µM	29.9 µM	13.6 µM	29.2 µM
O=C(Nc1ccc(Cl)cc1F)c1cc(Br)ccc1O	0.305 µM	1.26 µM	0.804 µM	7.29 µM	0.732 µM	> 100 µM	0.461 µM	3.65 µM	0.799 µM	3.75 µM	1.83 µM	8.53 µM	0.678 µM	> 100 µM	0.685 µM	3.01 µM	0.913 µM	> 52.4 µM	0.642 µM	> 100 µM
COC(=O)[C@@H](NC(=O)[C@@H](OC)[C@@H]1Cc2cc3cc(OC4CC(OC5CC(O)C(O)C(C)O5)C(O)C(C)O4)c(C)c(O)c3c(O)c2C(=O)[C@H]1OC1CC(OC2CC(OC3CC(C)(O)C(O)C(C)O3)C(O)C(C)O2)C(O)C(C)O1)C(C)C (stereo partly drawn)	0.0731 µM	0.409 µM	0.127 µM	0.847 µM	0.166 µM	14 µM	0.129 µM	4.4 µM	0.0822 µM	0.427 µM	0.149 µM	> 32.5 µM	0.139 µM	> 32.5 µM	0.184 µM	2.63 µM	0.106 µM	1.6 µM	0.101 µM	> 32.5 µM
OCCCCC#Cc1ccccc1C#Cc1cccc(O)c1	13.3 µM	26.9 µM	17.5 µM	35.8 µM	16.1 µM	32.1 µM	15.9 µM	32.5 µM	2.3 µM	13.9 µM	16.9 µM	38.1 µM	19.2 µM	40.4 µM	16 µM	42.1 µM	15 µM	31.3 µM	16.8 µM	33.3 µM
CN(C)c1ccc2nc3ccc(=O)cc-3sc2c1	1.32 µM	8.69 µM	0.287 µM		1.41 µM	36.5 µM	0.545 µM	> 74.5 µM	2.92 µM	36.9 µM	0.0726 µM	> 100 µM	0.919 µM	> 100 µM	0.712 µM	> 100 µM	0.72 µM	32.2 µM	2.48 µM	> 54.5 µM
CN1CCc2c(Sc3ccc(C(=O)NO)cc3)c3ccccc3n2C1	1.62 µM	3.65 µM	1.42 µM	3.11 µM	1.92 µM	8.6 µM	2.33 µM	14.9 µM	2.37 µM	9.51 µM	1.63 µM	4.01 µM	2.91 µM	> 33 µM	2.39 µM	6.19 µM	1.6 µM	3.29 µM	2.84 µM	9.06 µM
CC(=O)Oc1ccc(Nc2c3ccccc3nc3ccccc23)cc1	1.1 µM	2.61 µM	1.63 µM	6.24 µM	1.74 µM	5.93 µM	0.693 µM	2.59 µM	1.08 µM	2.93 µM	2.12 µM	13.3 µM	1.45 µM	> 100 µM	2.77 µM	13.5 µM	1.55 µM	8.85 µM	1.15 µM	6.98 µM
O=C(Nc1cccc(Cl)c1)c1cc2ccccc2cc1O	1.55 µM and 0.657 µM	> 100 µM	3.17 µM and 0.577 µM	28.8 µM and > 100 µM	3.39 µM and 2.32 µM	> 100 µM	0.34 µM	> 100 µM	2.74 µM and 2.93 µM	> 100 µM and 14.5 µM	1.73 µM and 2 µM	> 100 µM	1.38 µM and 0.888 µM	> 100 µM	2.42 µM and 1.84 µM	7.66 µM and 9.29 µM	1.74 µM	19.6 µM and 8.44 µM	2.71 µM and 2.06 µM	> 100 µM
O=C1/C(=C\c2cccn2Cc2ccccc2)c2ccccc2N1c1c(Cl)cccc1Cl	3.28 µM	> 100 µM	> 100 µM	> 100 µM	0.196 µM	> 60.4 µM	3.89 µM	> 100 µM	> 100 µM	> 100 µM	5.93 µM	> 100 µM	> 100 µM	> 100 µM	> 100 µM	> 100 µM	> 100 µM	> 100 µM	0.551 µM	> 100 µM
Fc1ccc(Nc2cc(-n3nnc4ccccc43)nc3ccccc23)cc1	36.4 µM	> 69.2 µM	24.6 µM	> 55.6 µM	22.4 µM	> 80.4 µM	> 55.9 µM	> 100 µM	0.781 µM	27.6 µM	20.3 µM	> 100 µM	> 100 µM	> 100 µM	> 47.9 µM	> 89 µM	27.6 µM	> 76.1 µM	63.9 µM	> 100 µM
